This note sets out measurements from ChEMBL document CHEMBL4420063, “Pgam1 inhibitors and methods related thereto” (2014).

SMILES strings stand for the structures. pIC50: −log10 of the molar value.

Series [1] can be described thus: Antiproliferative activity against CD34-positive blood stem/progenitor cells from healthy human assessed as reduction in cell viability at 20 uM by trypan blue exclusion based assay.
Series [2] in a line: Toxicity in athymic nude-Foxn1nu mouse assessed as effect on body weight at 100 mg/kg/day, ip for 7 days. The series is classed as organism-based. Conditions: in vivo, 168 h; call rule not given here.
A short description of series [3]: Toxicity in athymic nude-Foxn1nu mouse assessed as effect on kidney at 100 mg/kg/day, ip for 7 days by H and E staining based histo-pathological analysis. The series is classed as organism-based. To be noted: in vivo, 168 h.
The nature of series [4]: Toxicity in athymic nude-Foxn1nu mouse assessed as effect on spleen at 100 mg/kg/day, ip for 7 days by H and E staining based histo-pathological analysis. The series is classed as organism-based. To be noted: in vivo, 168 h.
Series [5] concerns KG-1a. Kind of series: Inhibition of cell proliferation in human KG1a cells assessed as reduction in cell number by MTT assay. The series is classed as functional, cell-based. In general terms: Tetrazolium assays rely on reduction of a dye to a coloured formazan, in cell work by metabolically active cells.
The test system of a further series is HaCaT. Kind of series: Antiproliferative activity against human HaCaT cells assessed as reduction in cell number up to 40 uM by trypan blue exclusion based assay.
Series [6] is described as follows: Toxicity in athymic nude-Foxn1nu mouse assessed as effect on hematopoietic parameters at 100 mg/kg/day, ip for 7 days. The series is classed as organism-based. Conditions: in vivo, 168 h.
A short description of series [7]: Toxicity in athymic nude-Foxn1nu mouse assessed as effect on complete blood counts at 100 mg/kg/day, ip for 7 days. The series is classed as organism-based. Conditions: in vivo, 168 h.
Series [8] can be described thus: Toxicity in ip dosed athymic nude-Foxn1nu mouse dosed for 4 weeks assessed as well-tolerated dose level. The series is classed as organism-based. To be noted: in vivo, 672 h.
The next series has as its system NCI-H1299. Kind of series: Inhibition of cell proliferation in human NCI-H1299 cells assessed as reduction in cell number by MTT assay. The series is classed as functional, cell-based.
Series [9] can be described thus: Antiproliferative activity against human PIG1 cells assessed as reduction in cell number up to 40 uM by trypan blue exclusion based assay.
For the next series, the system named is PBMC. In words: Antiproliferative activity against PBMC from healthy human assessed as reduction in cell viability at 10 to 20 uM by MTT assay. The series is classed as cell-based.
Series [10] is described as follows: Inhibition of cell proliferation in human Tu212LN cells assessed as reduction in cell number by MTT assay. The series is classed as functional, cell-based.
The subject of another series is NHDF. In words: Antiproliferative activity against NHDF cells assessed as reduction in cell number up to 40 uM by trypan blue exclusion based assay. Conditions: human.
Series [11] can be described thus: Toxicity in athymic nude-Foxn1nu mouse assessed as effect on lung at 100 mg/kg/day, ip for 7 days by H and E staining based histo-pathological analysis. The series is classed as organism-based. To be noted: in vivo, 168 h.
In a further series the test system is HFF. Kind of series: Antiproliferative activity against HFF cells assessed as reduction in cell number up to 40 uM by trypan blue exclusion based assay. To be noted: human.
Series [12] can be described thus: Toxicity in athymic nude-Foxn1nu mouse assessed as effect on liver at 100 mg/kg/day, ip for 7 days by H and E staining based histo-pathological analysis. The series is classed as organism-based. To be noted: in vivo, 168 h.
Series [13] concerns KG-1a. Kind of series: Inhibition of cell proliferation in human KG1a cells assessed as reduction in cell number by trypan blue exclusion based assay. The series is classed as functional.

Consider `O=C1c2ccccc2C(=O)c2c1cc(S(=O)(=O)Nc1ccc(C(F)(F)F)cc1)c(O)c2O`, for which the Activity result (in series [1]; in series [2]; in series [3]; in series [4]; in the series with HaCaT; in series [6]) was “Non-Toxic” throughout. Also, the Activity result was “Non-Toxic” in [7]; 100 mg/kg/day in series [8]; “Non-Toxic” in series [9]; “Non-Toxic” in the series on PBMC; “Non-Toxic” with NHDF; “Non-Toxic” in series [11]. The Activity entry (in the series with HFF; in [12]) was “Non-Toxic” in each case. In addition, the pIC50 – broadly, −log10 of the IC50, conventionally taken in molar units – in the series with KG-1a [5] is 4.77; in the series with NCI-H1299, 4.59; in series [10] it was 4.58.
Consider `O=C1c2ccccc2C(=O)c2c1ccc(O)c2O` [ATHRAQUINONES A], for which the negative logarithm of the IC50 (pIC50) is 4.22 in the series with KG-1a [5] and 4.23 in the series with KG-1a [13].
